Test systems include Escherichia coli CE273; Escherichia coli CR3; Bacillus cereus IFO 3457.
Assay in all cases: ≥ marks a high value that may be exact or a test limit, other limits are often not marked, values filed in µg/mL are converted to µM
In assay [1] the test system is Bacillus subtilis ATCC 6633.
Assay [2] relates to Staphylococcus aureus FDA 209P JC-1.
Assay [3] has as its system Escherichia coli NIHJ JC-2.
Assay [4] concerns Salmonella enterica subsp. enterica serovar Typhimurium ATCC 14028.
Assay [5] relates to Salmonella enterica subsp. enterica serovar Enteritidis ATCC 1891.
Assay [6] relates to Staphylococcus aureus JCM 2431.
Assay [7] has as its system Escherichia coli JCM 1649.
In assay [8] the test system is Escherichia coli ATCC 39188.
Assay [9] has as its system Vibrio parahaemolyticus IFO12711.
Assay [10] has as its system Staphylococcus aureus Smith.
In assay [11] the test system is Staphylococcus aureus IFO 13276.
Assay [12] deals with Bacillus subtilis IFO 13722.

In DBAASP one finds MIC data, which are given here for one molecule.

SMILES strings stand for the structures. Values after ≈ are worked out from the molar mass of the structure shown. Where only a bound is given, the exact number is not on record here.

Take `CC[C@H](C)[C@H](NC(=O)CNC(=O)[C@H](CCCCN)NC(=O)[C@H](Cc1c[nH]c2ccccc12)NC(=O)[C@H](CC(N)=O)NC(=O)[C@@H](N)CCCCN)C(=O)N[C@@H](C)C(=O)NCC(=O)N[C@@H](CCSC)C(=O)N[C@@H](C)C(=O)N[C@@H](CCCCN)C(=O)N[C@@H](CCCCN)C(=O)N[C@@H](CC(C)C)C(=O)N[C@@H](CC(C)C)C(=O)NCC(=O)N[C@@H](CCCCN)C(=O)N[C@@H](CC(N)=O)C(=O)N[C@@H](Cc1c[nH]c2ccccc12)C(=O)N[C@@H](CCCCN)C(=O)N[C@@H](CC(C)C)C(=O)N[C@@H](CCSC)C(=O)O` [KNWKGIAGMAKKLLGKNWKLM]: the MIC in [1] is 3.1 µM (≈ 7.49 µg/mL); in assay [2], 1.6 µM (≈ 3.87 µg/mL); in assay [3], 3.1 µM (≈ 7.49 µg/mL); in the assay on Escherichia coli CE273 it was 3.1 µM (≈ 7.49 µg/mL); in assay [4] it was 6.3 µM (≈ 15.2 µg/mL); in assay [5], 6.3 µM (≈ 15.2 µg/mL). Besides, the MIC was 12.5 µM (≈ 30.2 µg/mL) in assay [6]; 6.3 µM (≈ 15.2 µg/mL) in assay [7]; 3.1 µM (≈ 7.49 µg/mL) in assay [8]; ≥ 50 µM in [9]; 6.3 µM (≈ 15.2 µg/mL) against Escherichia coli CR3; 6.3 µM (≈ 15.2 µg/mL) in assay [10]. Besides, the MIC against Bacillus cereus IFO 3457 is 3.1 µM (≈ 7.49 µg/mL); in assay [11], 25 µM (≈ 60.4 µg/mL); in assay [12], 6.3 µM (≈ 15.2 µg/mL).

Usually MIC stands for the smallest concentration in the dilution series that meets the test's criterion for growth inhibition. A high value points to a less susceptible organism.
